According to patent US12077503B2, “Substituted cyclic amides and their use as herbicides” (FMC CORPORATION, priority 2015, dated 2024):

What was measured:
Format in all cases: in vivo
Kochia (Kochia scoparia) [1] = experiment: Test A preemergence; settings: Bassia scoparia, pre-emergence, 240 h; for pest or weed control at 125 g/ha: 125 g ai/ha, preemergence, 0 to 100 scale where 0 is no effect and 100 is complete control, read-out: Kochia plant response rating; for pest or weed control at 500 g/ha: 500 g ai/ha, Preemergence, visual injury vs untreated controls after approximately 10 d, read-out: Kochia plant response rating (0 to 100 scale where 0 is no effect and 100 is complete control)
Procedure, shortened: (§1)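 Each rating is a visual injury score from 0 to 100 given about 10 d after treatment, judged against untreated controls kept alongside in the greenhouse. In loam soil–sand blend, seeds got a preemergence directed soil spray, while postemergence plants were 2 to 10 cm tall at spraying.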

[2] = system: barnyardgrass (Echinochloa crus-galli); experiment: Test A preemergence; settings: Echinochloa crus-galli, pre-emergence, 240 h; for pest or weed control at 125 g/ha: 125 g ai/ha, preemergence, 0 to 100 scale where 0 is no effect and 100 is complete control, read-out: Barnyardgrass plant response rating; for pest or weed control at 500 g/ha: 500 g ai/ha, Preemergence, visual injury vs untreated controls after approximately 10 d, read-out: Barnyardgrass plant response rating (0 to 100 scale where 0 is no effect and 100 is complete control)
Procedure, shortened: as §1

[3] = system: giant foxtail (Setaria faberii); experiment: Test A preemergence; settings: Setaria faberi, pre-emergence, 240 h; for pest or weed control at 125 g/ha: 125 g ai/ha, preemergence, 0 to 100 scale where 0 is no effect and 100 is complete control, read-out: Foxtail, Giant plant response rating; for pest or weed control at 500 g/ha: 500 g ai/ha, Preemergence, visual injury vs untreated controls after approximately 10 d, read-out: Foxtail, Giant plant response rating (0 to 100 scale where 0 is no effect and 100 is complete control)
Procedure, shortened: as §1

[4] = system: pigweed (Amaranthus retroflexus); experiment: Test A preemergence; settings: Amaranthus retroflexus, pre-emergence, 240 h; for pest or weed control at 125 g/ha: 125 g ai/ha, preemergence, 0 to 100 scale where 0 is no effect and 100 is complete control, read-out: Pigweed plant response rating; for pest or weed control at 500 g/ha: 500 g ai/ha, Preemergence, visual injury vs untreated controls after approximately 10 d, read-out: Pigweed plant response rating (0 to 100 scale where 0 is no effect and 100 is complete control)
[5] = system: ragweed (common ragweed, Ambrosia elatior); experiment: Test A preemergence; settings: Ambrosia artemisiifolia, pre-emergence, 240 h; for pest or weed control at 125 g/ha: 125 g ai/ha, preemergence, 0 to 100 scale where 0 is no effect and 100 is complete control, read-out: Ragweed plant response rating; for pest or weed control at 500 g/ha: 500 g ai/ha, Preemergence, visual injury vs untreated controls after approximately 10 d, read-out: Ragweed plant response rating (0 to 100 scale where 0 is no effect and 100 is complete control)
Procedure, shortened: as §1

[6] = system: ryegrass, Italian (Italian ryegrass, Lolium multiflorum); experiment: Test A preemergence; settings: Lolium multiflorum, pre-emergence, 240 h; for pest or weed control at 125 g/ha: 125 g ai/ha, preemergence, 0 to 100 scale where 0 is no effect and 100 is complete control, read-out: Ryegrass, Italian plant response rating; for pest or weed control at 500 g/ha: 500 g ai/ha, Preemergence, visual injury vs untreated controls after approximately 10 d, read-out: Ryegrass, Italian plant response rating (0 to 100 scale where 0 is no effect and 100 is complete control)
Procedure, shortened: as §1

[7] = system: Galium (catchweed bedstraw, Galium aparine); experiment: Test A postemergence; settings: Galium, post-emergence, 240 h, 125 g ai/ha, postemergence, visual injury rating after approximately 10 d; read-out: Galium plant response rating (0 to 100 scale, 0 no effect, 100 complete control)
Procedure, shortened: as §1

Kochia (Kochia scoparia) [8] = experiment: Test A postemergence; settings: Bassia scoparia, post-emergence, 240 h, 125 g ai/ha, postemergence, visual injury rating after approximately 10 d; read-out: Kochia plant response rating (0 to 100 scale, 0 no effect, 100 complete control)
Procedure, shortened: as §1

[9] = system: barnyardgrass (Echinochloa crus-galli); experiment: Test A postemergence; settings: Echinochloa crus-galli, post-emergence, 240 h, 125 g ai/ha, postemergence, visual injury rating after approximately 10 d; read-out: Barnyardgrass plant response rating (0 to 100 scale, 0 no effect, 100 complete control)
Procedure, shortened: as §1

[10] = system: blackgrass (Alopecurus myosuroides); experiment: Test A postemergence; settings: Alopecurus myosuroides, post-emergence, 240 h, 125 g ai/ha, postemergence, visual injury rating after approximately 10 d; read-out: Blackgrass plant response rating (0 to 100 scale, 0 no effect, 100 complete control)
Procedure, shortened: as §1

corn (Zea mays) = experiment: Test A postemergence; settings: Zea mays, post-emergence, 240 h, 125 g ai/ha, postemergence, visual injury rating after approximately 10 d; read-out: Corn plant response rating (0 to 100 scale, 0 no effect, 100 complete control)
Procedure, shortened: as §1

[11] = system: giant foxtail (Setaria faberii); experiment: Test A postemergence; settings: Setaria faberi, post-emergence, 240 h, 125 g ai/ha, postemergence, visual injury rating after approximately 10 d; read-out: Foxtail, Giant plant response rating (0 to 100 scale, 0 no effect, 100 complete control)
Procedure, shortened: as §1

[12] = system: pigweed (Amaranthus retroflexus); experiment: Test A postemergence; settings: Amaranthus retroflexus, post-emergence, 240 h, 125 g ai/ha, postemergence, visual injury rating after approximately 10 d; read-out: Pigweed plant response rating (0 to 100 scale, 0 no effect, 100 complete control)
Procedure, shortened: as §1

[13] = system: ragweed (common ragweed, Ambrosia elatior); experiment: Test A postemergence; settings: Ambrosia artemisiifolia, post-emergence, 240 h, 125 g ai/ha, postemergence, visual injury rating after approximately 10 d; read-out: Ragweed plant response rating (0 to 100 scale, 0 no effect, 100 complete control)
Procedure, shortened: as §1

[14] = system: ryegrass, Italian (Italian ryegrass, Lolium multiflorum); experiment: Test A postemergence; settings: Lolium multiflorum, post-emergence, 240 h, 125 g ai/ha, postemergence, visual injury rating after approximately 10 d; read-out: Ryegrass, Italian plant response rating (0 to 100 scale, 0 no effect, 100 complete control)
Procedure, shortened: as §1

[15] = system: wheat (Triticum aestivum); experiment: Test A postemergence; settings: Triticum aestivum, post-emergence, 240 h, 125 g ai/ha, postemergence, visual injury rating after approximately 10 d; read-out: Wheat plant response rating (0 to 100 scale, 0 no effect, 100 complete control)
Procedure, shortened: as §1

O=C1NC[C@H](c2ccc3c(c2)CCCO3)[C@H]1C(=O)Nc1ccccc1F [Compound 885]
pest or weed control at 125 g/ha (Kochia (Kochia scoparia) [1]): 0%
pest or weed control at 500 g/ha (Kochia (Kochia scoparia) [1]): 0%
pest or weed control at 125 g/ha [2]: 70%
pest or weed control at 500 g/ha [2]: 90%
pest or weed control at 125 g/ha [3]: 50%
pest or weed control at 500 g/ha [3]: 80%
pest or weed control at 125 g/ha [4]: 0%
pest or weed control at 500 g/ha [4]: 0%
pest or weed control at 125 g/ha [5]: 0%
pest or weed control at 500 g/ha [5]: 0%
pest or weed control at 125 g/ha [6]: 0%
pest or weed control at 500 g/ha [6]: 20%
pest or weed control at 125 g/ha [7]: 20%
pest or weed control at 125 g/ha (Kochia (Kochia scoparia) [8]): 0%
pest or weed control at 125 g/ha [9]: 70%
pest or weed control at 125 g/ha [10]: 0%
plant injury at 125 g/ha (corn (Zea mays)): 0%
pest or weed control at 125 g/ha [11]: 40%
pest or weed control at 125 g/ha [12]: 0%
pest or weed control at 125 g/ha [13]: 0%
pest or weed control at 125 g/ha [14]: 0%
plant injury at 125 g/ha [15]: 0%

O=C1NC[C@H](c2cncc(C(F)(F)F)c2)[C@H]1C(=O)Nc1ccccc1F [Compound 887]
pest or weed control at 125 g/ha (Kochia (Kochia scoparia) [1]): 0%
pest or weed control at 500 g/ha (Kochia (Kochia scoparia) [1]): 20%
pest or weed control at 125 g/ha [2]: 90%
pest or weed control at 500 g/ha [2]: 90%
pest or weed control at 125 g/ha [3]: 80%
pest or weed control at 500 g/ha [3]: 90%
pest or weed control at 125 g/ha [4]: 0%
pest or weed control at 500 g/ha [4]: 0%
pest or weed control at 125 g/ha [5]: 0%
pest or weed control at 500 g/ha [5]: 0%
pest or weed control at 125 g/ha [6]: 0%
pest or weed control at 500 g/ha [6]: 0%
pest or weed control at 125 g/ha [7]: 0%
pest or weed control at 125 g/ha (Kochia (Kochia scoparia) [8]): 0%
pest or weed control at 125 g/ha [9]: 80%
pest or weed control at 125 g/ha [10]: 0%
plant injury at 125 g/ha (corn (Zea mays)): 0%
pest or weed control at 125 g/ha [11]: 70%
pest or weed control at 125 g/ha [12]: 0%
pest or weed control at 125 g/ha [13]: 0%
pest or weed control at 125 g/ha [14]: 0%
plant injury at 125 g/ha [15]: 0%

COc1c(F)ccc([C@H]2CN(C)C(=O)[C@@H]2C(=O)Nc2cccc(F)c2F)c1Cl [Compound 893]
pest or weed control at 125 g/ha (Kochia (Kochia scoparia) [1]): 80%
pest or weed control at 500 g/ha (Kochia (Kochia scoparia) [1]): 90%
pest or weed control at 125 g/ha [2]: 90%
pest or weed control at 500 g/ha [2]: 100%
pest or weed control at 125 g/ha [3]: 90%
pest or weed control at 500 g/ha [3]: 90%
pest or weed control at 125 g/ha [4]: 30%
pest or weed control at 500 g/ha [4]: 50%
pest or weed control at 125 g/ha [5]: 40%
pest or weed control at 500 g/ha [5]: 70%
pest or weed control at 125 g/ha [6]: 40%
pest or weed control at 500 g/ha [6]: 90%
pest or weed control at 125 g/ha [7]: 50%
pest or weed control at 125 g/ha (Kochia (Kochia scoparia) [8]): 60%
pest or weed control at 125 g/ha [9]: 100%
pest or weed control at 125 g/ha [10]: 30%
plant injury at 125 g/ha (corn (Zea mays)): 80%
pest or weed control at 125 g/ha [11]: 90%
pest or weed control at 125 g/ha [12]: 20%
pest or weed control at 125 g/ha [13]: 30%
pest or weed control at 125 g/ha [14]: 60%
plant injury at 125 g/ha [15]: 30%
